In patent US10106538B2, “Inhibitors of protein kinases” (PRINCETON DRUG DISCOVERY INC, priority 2015, dated 2018):

Legend:
[1] = target: T1, MET (Homo sapiens, UniProt P08581); assay: Off-chip Mobility Shift Assay (MSA) kinase inhibition; format: biochemical; details: for inhibition at 0.1 µM: inhibitor concentration 0.1 μM
T1 construct: purchased Carna Biosciences
Protocol: (§1) Off-chip Mobility Shift Assay (MSA) by Cama Biosciences, Inc (Natick, Mass.) a used for measuring the kinase activity and inhibition. • 1) The 5 μL of x4 compound solution, 5 μL of x4 Substrate/ATP/Metal solution, and 10 μL of x2 kinase solution were prepared with assay buffer (20 mM HEPES, 0.01% Triton X100, 2 mM DTT, pH 7.5) and mixed and incubated in a well of polypropylene 384 well microplate for 1 or 5 hour(s)* at room temperature.

[2] = target: T2, HER4 (Homo sapiens, UniProt Q15303); assay: as above; format: biochemical; details: for inhibition at 0.1 µM: inhibitor concentration 0.1 μM
T2 construct: purchased Carna Biosciences
Protocol: as §1

[3] = target: T3, PDGFRα (Homo sapiens, UniProt P16234); assay: as above; format: biochemical; details: for inhibition at 0.1 µM: inhibitor concentration 0.1 μM
T3 construct: purchased Carna Biosciences
Protocol: as §1

[4] = target: T4, EGFR (Homo sapiens, UniProt P00533); assay: as above; format: biochemical; details: for inhibition at 0.1 µM: inhibitor concentration 0.1 μM
T4 construct: purchased Carna Biosciences
Protocol: as §1

[5] = target: T5, RAF1 (Homo sapiens, UniProt P04049); assay: as above; format: biochemical; details: for inhibition at 0.1 µM: inhibitor concentration 0.1 μM
T5 construct: purchased Carna Biosciences
Protocol: as §1

[6] = target: T6, FGR (Homo sapiens, UniProt P09769); assay: as above; format: biochemical; details: for inhibition at 0.1 µM: inhibitor concentration 0.1 μM
T6 construct: purchased Carna Biosciences
Protocol: as §1

[7] = target: T7, BRK (Homo sapiens, UniProt Q13882); assay: as above; format: biochemical; details: for inhibition at 0.1 µM: inhibitor concentration 0.1 μM
T7 construct: purchased Carna Biosciences
Protocol: as §1

[8] = target: T8, KIT(V560G) (Homo sapiens, UniProt P10721, V560G); assay: as above; format: biochemical; details: for inhibition at 0.1 µM: inhibitor concentration 0.1 μM
T8 construct: purchased Carna Biosciences
Protocol: as §1

[9] = target: T9, FGFR2 (Homo sapiens, UniProt P21802); assay: as above; format: biochemical; details: for inhibition at 0.1 µM: inhibitor concentration 0.1 μM
T9 construct: purchased Carna Biosciences
Protocol: as §1

[10] = target: T10, PDGFRβ (Homo sapiens, UniProt P09619); assay: as above; format: biochemical; details: for inhibition at 0.1 µM: inhibitor concentration 0.1 μM
T10 construct: purchased Carna Biosciences
Protocol: as §1

[11] = target: T11, SRM (Homo sapiens, UniProt Q9H3Y6); assay: as above; format: biochemical; details: for inhibition at 0.1 µM: inhibitor concentration 0.1 μM
T11 construct: purchased Carna Biosciences
Protocol: as §1

[12] = target: T12, IGF1R (Homo sapiens, UniProt P08069); assay: as above; format: biochemical; details: for inhibition at 0.1 µM: inhibitor concentration 0.1 μM
T12 construct: purchased Carna Biosciences
Protocol: as §1

[13] = target: T13, FGFR3 (Homo sapiens, UniProt P22607); assay: as above; format: biochemical; details: for inhibition at 0.1 µM: inhibitor concentration 0.1 μM
T13 construct: purchased Carna Biosciences
Protocol: as §1

[14] = test system: breast cancer cell line T-47D; assay: Cell growth assay with breast cancer cell line T-47D; format: cell-based; details: Homo sapiens, T47D, 72 h, T-47D cells, PrestoBlue Cell Viability reagent, read-out: IC50 inhibition of cell growth
Protocol: […] of the complete medium was then gently dispersed over the surface of the cell layer for several times. The cell concentration was adjusted to 1×10^4 cells/mL with the complete medium. A 100 μL aliquot of the cell suspension was added to the well of a 96-well plate, and the plate was incubated overnight at 37° C. under 5% CO2 with saturated humidity. On the next day, the medium in each well was aspirated and replaced with a 100 μL aliquot of pre-warmed complete medium at 37° C. in the presence or absence of the test compounds at various concentrations from 0-100 μM. The test compounds were dissolved in DMSO, and the final DMSO concentration in the cell culture was no more than 1%. The plate was incubated for 72 hours at 37° C. under 5% CO2 with saturated humidity. At end of the cell culture a 10 μL aliquot of PrestoBlue® Cell Viability reagent (ThermoFisher Scientific) was added into the well and the plate was incubated at 37° C. for 30 min. The absorption at 570 and 600 nm were measured with a SpectraMax Microplate reader (Molecular Devices), The absorbance at […] was normalized to that at 600 nm.

[15] = target: T14, ROS (Homo sapiens, UniProt P08922); assay: Off-chip Mobility Shift Assay (MSA) kinase inhibition; format: biochemical; details: inhibitor concentration 0.1 μM
T14 construct: purchased Carna Biosciences
Protocol: as §1

[16] = target: T15, JNK3 (Homo sapiens, UniProt P53779); assay: as above; format: biochemical; details: inhibitor concentration 0.1 μM
T15 construct: purchased Carna Biosciences, Inc
Protocol: as §1

[17] = target: T16, PIM1 (Homo sapiens, UniProt P11309); assay: as above; format: biochemical; details: inhibitor concentration 0.1 μM
T16 construct: purchased Carna Biosciences
Protocol: as §1

[18] = target: T17, AKT3 (Homo sapiens, UniProt Q9Y243); assay: as above; format: biochemical; details: inhibitor concentration 0.1 μM
T17 construct: purchased Carna Biosciences
Protocol: as §1

[19] = target: T18, MAP3K4 (Homo sapiens, UniProt Q9Y6R4); assay: as above; format: biochemical; details: inhibitor concentration 0.1 μM
T18 construct: purchased Carna Biosciences
Protocol: as §1

[20] = target: T19, BMX (Homo sapiens, UniProt P51813); assay: as above; format: biochemical; details: inhibitor concentration 0.1 μM
T19 construct: purchased Carna Biosciences
T19 sequence (P51813 1-675): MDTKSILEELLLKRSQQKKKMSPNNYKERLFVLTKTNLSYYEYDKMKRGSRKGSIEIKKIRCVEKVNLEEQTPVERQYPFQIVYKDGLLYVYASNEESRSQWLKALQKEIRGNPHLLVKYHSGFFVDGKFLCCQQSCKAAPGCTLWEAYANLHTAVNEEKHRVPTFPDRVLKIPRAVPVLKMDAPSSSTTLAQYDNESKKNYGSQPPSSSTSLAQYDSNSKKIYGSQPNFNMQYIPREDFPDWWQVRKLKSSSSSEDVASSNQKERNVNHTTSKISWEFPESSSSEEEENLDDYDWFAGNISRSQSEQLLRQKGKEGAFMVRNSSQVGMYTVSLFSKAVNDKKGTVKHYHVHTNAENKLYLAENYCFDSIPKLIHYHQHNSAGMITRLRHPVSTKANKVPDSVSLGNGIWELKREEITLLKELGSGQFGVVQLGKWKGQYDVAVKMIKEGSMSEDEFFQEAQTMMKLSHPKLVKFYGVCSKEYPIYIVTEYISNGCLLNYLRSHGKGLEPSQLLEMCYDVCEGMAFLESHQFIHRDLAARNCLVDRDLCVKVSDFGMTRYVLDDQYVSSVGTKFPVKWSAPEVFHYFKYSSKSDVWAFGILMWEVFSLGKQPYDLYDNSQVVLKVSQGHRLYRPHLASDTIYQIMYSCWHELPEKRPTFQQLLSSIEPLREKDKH
Protocol: as §1

[21] = target: T20, PKACα (Homo sapiens, UniProt P17612); assay: as above; format: biochemical; details: inhibitor concentration 0.1 μM
T20 construct: purchased Carna Biosciences, Inc
Protocol: as §1

[22] = target: T21, RON (Homo sapiens, UniProt Q04912); assay: as above; format: biochemical; details: inhibitor concentration 0.1 μM
T21 construct: purchased Carna Biosciences
Protocol: as §1

[23] = target: T22, ABL(E255K) (Homo sapiens, UniProt P00519, E255K); assay: as above; format: biochemical; details: inhibitor concentration 0.1 μM
T22 construct: purchased Carna Biosciences
Protocol: as §1

[24] = inhibitor concentration 0.01 μM
[25] = inhibitor concentration 0.01 μM, 0.01 µM

T18 sequence (Q9Y6R4 whole entry): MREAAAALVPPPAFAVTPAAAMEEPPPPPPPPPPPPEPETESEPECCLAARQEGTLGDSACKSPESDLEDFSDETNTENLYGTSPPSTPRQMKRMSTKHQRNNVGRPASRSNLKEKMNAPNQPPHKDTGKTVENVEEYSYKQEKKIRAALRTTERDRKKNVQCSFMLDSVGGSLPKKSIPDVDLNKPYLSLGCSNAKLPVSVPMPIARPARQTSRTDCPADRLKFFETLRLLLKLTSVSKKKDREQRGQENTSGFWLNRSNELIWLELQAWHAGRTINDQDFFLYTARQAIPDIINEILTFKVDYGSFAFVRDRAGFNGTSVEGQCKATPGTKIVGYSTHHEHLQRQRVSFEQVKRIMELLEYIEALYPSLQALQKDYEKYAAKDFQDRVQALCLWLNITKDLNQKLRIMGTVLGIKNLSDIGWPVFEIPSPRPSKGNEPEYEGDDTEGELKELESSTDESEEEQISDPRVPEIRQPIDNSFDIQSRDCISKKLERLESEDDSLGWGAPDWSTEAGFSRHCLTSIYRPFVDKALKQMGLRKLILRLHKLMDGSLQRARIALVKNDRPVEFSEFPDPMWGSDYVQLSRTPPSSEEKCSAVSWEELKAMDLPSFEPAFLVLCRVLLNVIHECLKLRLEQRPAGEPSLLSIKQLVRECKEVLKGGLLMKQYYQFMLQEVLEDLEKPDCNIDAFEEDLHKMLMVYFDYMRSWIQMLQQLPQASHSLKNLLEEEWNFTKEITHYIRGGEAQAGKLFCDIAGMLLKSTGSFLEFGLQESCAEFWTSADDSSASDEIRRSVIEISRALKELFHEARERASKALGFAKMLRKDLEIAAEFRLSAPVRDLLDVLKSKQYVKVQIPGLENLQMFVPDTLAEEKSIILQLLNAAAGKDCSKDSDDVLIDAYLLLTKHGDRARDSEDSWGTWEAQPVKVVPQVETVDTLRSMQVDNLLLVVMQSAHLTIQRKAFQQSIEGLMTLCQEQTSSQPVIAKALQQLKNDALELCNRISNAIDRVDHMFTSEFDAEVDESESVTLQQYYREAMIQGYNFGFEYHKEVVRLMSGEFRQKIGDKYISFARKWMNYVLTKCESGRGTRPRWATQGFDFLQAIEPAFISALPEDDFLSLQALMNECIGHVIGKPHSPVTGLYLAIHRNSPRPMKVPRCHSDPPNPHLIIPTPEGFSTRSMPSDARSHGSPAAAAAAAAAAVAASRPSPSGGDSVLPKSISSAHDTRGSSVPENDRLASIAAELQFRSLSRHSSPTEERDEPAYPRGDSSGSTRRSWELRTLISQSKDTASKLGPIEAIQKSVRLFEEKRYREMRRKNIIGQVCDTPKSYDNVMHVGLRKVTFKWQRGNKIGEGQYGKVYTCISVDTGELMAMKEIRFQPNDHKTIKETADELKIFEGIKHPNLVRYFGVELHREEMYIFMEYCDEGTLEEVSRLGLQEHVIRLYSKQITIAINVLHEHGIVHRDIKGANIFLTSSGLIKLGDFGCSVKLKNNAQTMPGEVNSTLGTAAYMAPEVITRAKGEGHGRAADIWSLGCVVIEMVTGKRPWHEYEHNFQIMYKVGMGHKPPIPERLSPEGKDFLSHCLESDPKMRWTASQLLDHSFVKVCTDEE
T14 sequence (P08922 28-2347): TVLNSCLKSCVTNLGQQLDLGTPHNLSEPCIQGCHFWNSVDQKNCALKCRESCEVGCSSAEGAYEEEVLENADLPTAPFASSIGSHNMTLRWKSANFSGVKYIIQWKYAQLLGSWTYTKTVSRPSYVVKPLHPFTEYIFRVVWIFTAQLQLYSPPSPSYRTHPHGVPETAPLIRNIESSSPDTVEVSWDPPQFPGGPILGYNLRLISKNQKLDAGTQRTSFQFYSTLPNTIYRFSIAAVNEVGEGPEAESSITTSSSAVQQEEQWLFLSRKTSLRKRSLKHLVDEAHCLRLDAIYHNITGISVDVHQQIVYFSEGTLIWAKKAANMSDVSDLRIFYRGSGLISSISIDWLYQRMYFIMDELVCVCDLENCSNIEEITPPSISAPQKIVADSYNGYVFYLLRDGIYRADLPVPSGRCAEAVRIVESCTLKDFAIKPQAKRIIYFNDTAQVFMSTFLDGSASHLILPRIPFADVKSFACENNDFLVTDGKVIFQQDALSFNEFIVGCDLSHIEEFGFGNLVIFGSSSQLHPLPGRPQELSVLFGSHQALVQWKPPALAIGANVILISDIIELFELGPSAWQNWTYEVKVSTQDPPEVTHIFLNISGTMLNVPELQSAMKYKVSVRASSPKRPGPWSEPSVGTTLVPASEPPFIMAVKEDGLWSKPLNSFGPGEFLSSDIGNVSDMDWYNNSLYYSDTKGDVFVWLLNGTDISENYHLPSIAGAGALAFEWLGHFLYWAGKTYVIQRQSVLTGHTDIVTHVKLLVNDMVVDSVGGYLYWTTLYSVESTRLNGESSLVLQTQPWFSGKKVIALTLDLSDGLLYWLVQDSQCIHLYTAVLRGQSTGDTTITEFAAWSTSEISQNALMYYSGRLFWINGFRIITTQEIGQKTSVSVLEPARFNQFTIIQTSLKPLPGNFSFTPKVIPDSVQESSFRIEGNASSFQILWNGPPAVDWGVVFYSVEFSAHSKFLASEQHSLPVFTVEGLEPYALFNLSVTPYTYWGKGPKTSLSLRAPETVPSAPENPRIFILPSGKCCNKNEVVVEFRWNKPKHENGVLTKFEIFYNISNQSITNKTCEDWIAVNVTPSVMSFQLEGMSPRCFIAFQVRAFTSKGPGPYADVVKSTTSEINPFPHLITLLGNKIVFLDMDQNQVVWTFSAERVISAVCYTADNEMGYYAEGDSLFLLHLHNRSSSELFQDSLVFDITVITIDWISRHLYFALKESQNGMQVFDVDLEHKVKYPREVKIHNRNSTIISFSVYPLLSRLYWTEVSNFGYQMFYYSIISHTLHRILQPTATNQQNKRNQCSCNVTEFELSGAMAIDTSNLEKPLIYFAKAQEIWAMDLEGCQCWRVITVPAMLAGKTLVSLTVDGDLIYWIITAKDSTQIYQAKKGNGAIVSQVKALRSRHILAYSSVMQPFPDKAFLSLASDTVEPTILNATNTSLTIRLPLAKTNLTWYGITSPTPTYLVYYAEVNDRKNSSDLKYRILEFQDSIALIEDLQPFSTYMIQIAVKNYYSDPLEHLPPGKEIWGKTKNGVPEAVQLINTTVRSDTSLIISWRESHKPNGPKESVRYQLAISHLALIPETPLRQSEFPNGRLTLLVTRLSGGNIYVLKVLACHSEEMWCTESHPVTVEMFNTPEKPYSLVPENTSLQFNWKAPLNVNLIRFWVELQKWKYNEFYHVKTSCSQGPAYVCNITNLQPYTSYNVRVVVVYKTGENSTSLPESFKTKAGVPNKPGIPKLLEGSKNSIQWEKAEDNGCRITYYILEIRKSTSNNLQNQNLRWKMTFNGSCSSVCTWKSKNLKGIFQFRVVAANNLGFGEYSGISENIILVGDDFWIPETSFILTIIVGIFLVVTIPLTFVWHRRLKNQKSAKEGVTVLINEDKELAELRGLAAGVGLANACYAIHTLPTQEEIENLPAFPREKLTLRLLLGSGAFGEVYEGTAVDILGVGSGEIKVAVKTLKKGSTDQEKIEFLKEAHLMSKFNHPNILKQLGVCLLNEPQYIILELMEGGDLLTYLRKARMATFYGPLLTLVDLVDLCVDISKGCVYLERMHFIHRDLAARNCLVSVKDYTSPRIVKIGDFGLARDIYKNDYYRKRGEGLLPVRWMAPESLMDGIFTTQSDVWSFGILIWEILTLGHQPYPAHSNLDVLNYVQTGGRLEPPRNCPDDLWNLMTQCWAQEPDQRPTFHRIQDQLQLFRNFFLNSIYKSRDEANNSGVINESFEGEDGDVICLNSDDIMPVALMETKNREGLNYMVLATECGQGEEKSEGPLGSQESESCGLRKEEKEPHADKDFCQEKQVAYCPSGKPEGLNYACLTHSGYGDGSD
T7 sequence (Q13882 whole entry): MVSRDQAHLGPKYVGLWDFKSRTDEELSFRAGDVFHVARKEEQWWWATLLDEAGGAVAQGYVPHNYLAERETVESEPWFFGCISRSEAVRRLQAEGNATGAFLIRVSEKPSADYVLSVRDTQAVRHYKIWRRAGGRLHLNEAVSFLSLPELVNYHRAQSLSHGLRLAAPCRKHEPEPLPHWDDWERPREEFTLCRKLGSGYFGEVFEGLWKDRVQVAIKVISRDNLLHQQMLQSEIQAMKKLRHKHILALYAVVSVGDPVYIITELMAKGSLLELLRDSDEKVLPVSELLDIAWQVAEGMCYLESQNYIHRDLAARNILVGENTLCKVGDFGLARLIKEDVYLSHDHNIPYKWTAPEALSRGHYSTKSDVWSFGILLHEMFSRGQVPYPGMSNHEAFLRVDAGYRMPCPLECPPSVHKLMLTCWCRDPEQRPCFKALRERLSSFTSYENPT
T6 sequence (P09769 whole entry): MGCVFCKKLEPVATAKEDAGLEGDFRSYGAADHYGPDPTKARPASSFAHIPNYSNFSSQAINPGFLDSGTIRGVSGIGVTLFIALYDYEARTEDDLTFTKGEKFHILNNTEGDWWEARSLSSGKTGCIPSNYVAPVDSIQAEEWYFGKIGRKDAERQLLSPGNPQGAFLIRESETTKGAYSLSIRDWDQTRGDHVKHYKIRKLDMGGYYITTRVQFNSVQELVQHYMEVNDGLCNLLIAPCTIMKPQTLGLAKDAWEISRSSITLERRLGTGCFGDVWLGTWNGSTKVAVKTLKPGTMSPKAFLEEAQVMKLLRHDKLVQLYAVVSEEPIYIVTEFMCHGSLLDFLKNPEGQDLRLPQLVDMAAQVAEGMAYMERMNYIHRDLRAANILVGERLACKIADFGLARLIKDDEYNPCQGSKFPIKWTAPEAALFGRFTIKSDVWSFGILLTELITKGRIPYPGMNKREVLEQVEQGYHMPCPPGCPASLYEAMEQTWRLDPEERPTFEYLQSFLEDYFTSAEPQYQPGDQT

| SMILES | inhibition at 0.1 µM [3] [%] | inhibition at 0.1 µM [6] [%] | inhibition at 0.1 µM [7] [%] | inhibition at 0.1 µM [8] [%] | inhibition at 0.1 µM [10] [%] | inhibition at 0.1 µM [11] [%] | IC50 [14] [µM] | inhibition at 0.1 µM [1] [%] | inhibition at 0.1 µM [2] [%] | inhibition at 0.1 µM [4] [%] | inhibition at 0.1 µM [5] [%] | inhibition at 0.1 µM [15] [%] | inhibition at 0.1 µM [16] [%] | inhibition at 0.1 µM [17] [%] | inhibition at 0.1 µM [18] [%] | inhibition at 0.1 µM [19] [%] | inhibition at 0.1 µM [20] [%] | inhibition at 0.1 µM [21] [%] | inhibition at 0.1 µM [9] [%] | inhibition at 0.1 µM [22] [%] | further results |
| --- | --- | --- | --- | --- | --- | --- | --- | --- | --- | --- | --- | --- | --- | --- | --- | --- | --- | --- | --- | --- | --- |
| O=C(c1c(F)ccc(NS(=O)(=O)CCCO)c1F)c1c[nH]c2ncc(-c3ccc(Cl)cc3)cc12 [200-17, N-[3-[5-(4-chlorophenyl)-1H-pyrrolo[2,3-b]pyridine-3-carbonyl]-2,4-difluorophenyl]-3-hydroxypropane-1-sulfonamide] | > 50 | > 50 | > 50 | > 50 | < 50 | > 50 | < 20 |  |  |  |  |  |  |  |  |  |  |  |  |  | inhibition at 1 µM ([1]; inhibitor concentration 1 μM): > 50%; inhibition at 1 µM ([2]; inhibitor concentration 1 μM): > 50%; inhibition at 0.01 µM [3, 24]: < 30%; inhibition at 1 µM ([3]; inhibitor concentration 1 μM): > 50%; inhibition at 1 µM ([4]; inhibitor concentration 1 μM): > 50%; inhibition at 1 µM ([5]; inhibitor concentration 1 μM): > 50%; inhibition at 0.01 µM [6, 24]: > 30%; inhibition at 1 µM ([6]; inhibitor concentration 1 μM): > 50%; inhibition at 0.01 µM [7, 24]: > 30%; inhibition at 1 µM ([7]; inhibitor concentration 1 μM): > 50%; inhibition at 0.01 µM [8, 24]: < 30%; inhibition at 1 µM ([8]; inhibitor concentration 1 μM): > 50%; inhibition at 1 µM ([9]; inhibitor concentration 1 μM): > 50%; inhibition at 0.01 µM [10, 24]: < 30%; inhibition at 1 µM ([10]; inhibitor concentration 1 μM): > 50%; inhibition at 0.01 µM [11, 24]: > 30%; inhibition at 1 µM ([11]; inhibitor concentration 1 μM): > 50%; inhibition at 1 µM ([12]; inhibitor concentration 1 μM): < 50%; inhibition at 1 µM ([13]; inhibitor concentration 1 μM): > 50% |
| CC(O)CS(=O)(=O)Nc1ccc(F)c(C(=O)c2c[nH]c3ncc(-c4ccc(Cl)cc4)cc23)c1F (centres unmarked) [200-115] | > 30 | > 30 | > 30 | < 30 | < 30 | > 30 |  | < 30 | < 30 | < 30 | > 30 | < 30 | < 30 | < 30 | < 30 | < 30 | < 30 | < 30 | < 30 | < 30 | inhibition at 0.1 µM [23]: < 30%; inhibition at 0.1 µM [12]: < 30%; inhibition at 0.1 µM [13]: < 30% |
| C/C=C/S(=O)(=O)Nc1ccc(F)c(C(=O)c2c[nH]c3ncc(-c4ccc(Cl)cc4)cc23)c1F [200-93b] |  |  |  |  |  |  | < 20 |  |  |  |  |  |  |  |  |  |  |  |  |  | PDGFRα inhibition [3, 24]: >20%; RAF1 inhibition [5, 25]: >20%; FGR inhibition [6, 25]: >20%; BRK inhibition [7, 25]: >20%; KIT(V560G) inhibition [8, 25]: <20%; PDGFRβ inhibition [10, 25]: <20%; SRM inhibition [11, 25]: >20% |
| O=C(c1c(F)ccc(NS(=O)(=O)CC(O)CO)c1F)c1c[nH]c2ncc(-c3ccc(Cl)cc3)cc12 (stereo not drawn) [200-73, N-[3-[5-(4-chlorophenyl)-lH-pyrrolo [2,3-b]pyridine-3-carbonyl]-2,4-difluorophenyl]-2,3-dihydroxypropane-l-sulfonamide] | < 30 | < 30 | > 30 | < 30 | < 30 | > 30 | < 20 | < 30 | < 30 | < 30 | > 30 | < 30 | < 30 | < 30 | < 30 | < 30 | < 30 | < 30 | < 30 | < 30 | inhibition at 0.1 µM [23]: < 30%; inhibition at 0.1 µM [12]: < 30%; inhibition at 0.1 µM [13]: < 30% |
| CC(=O)CS(=O)(=O)Nc1ccc(F)c(C(=O)c2c[nH]c3ncc(-c4ccc(Cl)cc4)cc23)c1F [200-117] | > 30 | > 30 | > 30 | < 30 | < 30 | > 30 |  | < 30 | < 30 | < 30 | > 30 | < 30 | < 30 | < 30 | < 30 | < 30 | < 30 | < 30 | < 30 | < 30 | inhibition at 0.1 µM [23]: < 30%; inhibition at 0.1 µM [12]: < 30%; inhibition at 0.1 µM [13]: < 30% |
